Test results as given in patent publication US9937174B2, “Combinations of histone deacetylase inhibitors and bendamustine” (priority 2014, dated 2018).
Like-named read-outs stand apart in the source and are kept apart here.

Experiments:
tubulin polymerization = experiment: Tubulin polymerization by α-tubulin staining and flow cytometry; settings: 24 hours, intensity of fluorescence
Protocol: Data are expressed as mean±SD and were obtained from three independent experiments performed in triplicate.
Lymphoma cells were treated for 24 hours with ricolinostat alone and in combination with bendamustine along with the microtubule destabilizer nocodazole (1 μM) and the microtubule stabilizer paclitaxel (100 nM). This was followed by whole cell-based quantitative measurement of tubulin polymerization using alpha-tubulin staining.

WSU-NHL = experiment: cells; assay type: cell-based; settings: Homo sapiens
Protocol: (§1) Ricolinostat was administered to each cell line at various concentrations (0.01, 0.1, 1, 5, and 10 μM), and cell viability was measured at 24, 48, and 72 hours.
(§2) Bendamustine was administered to each cell line at various concentrations (25, 50, 100, 200, and 300 μM), and cell viability was measured at 24 and 48 hours.
(§3) The effect of the drugs on each cell line was determined, and the combination index (CI) was measured. A CI<1 means synergy; a CI=1 means an additive effect; and a CI>1 means antagonism.

Jeko-1 = experiment: cells; assay type: cell-based; settings: Homo sapiens
Protocol: as §1, §2, §3

Hut-78 = experiment: cells; assay type: cell-based; settings: Homo sapiens
Protocol: as §1, §2, §3

[1] = system: lymphoma cell lines (WSU-NHL, Hut-78, Jeko-1); experiment: Cell cycle analysis by flow cytometry; settings: 24 h
Protocol: The bars of M1, M2, M3 and M4 indicate the sub-G0/G1, G0/G1, S and G2/M phases, respectively.
All values represent the mean±SD of three independent experiments.
(§5) Apoptosis, reactive oxygen species (ROS), cell cycle analysis, and Bcl-2 protein expression were measured by flow cytometry.

[2] = system: lymphoma cell lines (WSU-NHL, Hut-78, Jeko-1); assay type: cell-based; settings: flow cytometry, 24-48 h
Protocol: In FIG. 5A WSU-NHL cells were treated with either ricolinostat, bendamustine, or ricolinostat and bendamustine at the indicated concentrations. After 24 hours, the cells were fixed and stained with propidium iodide, and were analyzed by flow cytometry. […] This effect was enhanced by the combination with bendamustine (FIGS. 5C and 5D).

IL-10 = IL-10 secretion by ELISA
Protocol: IL-10 secretion was analyzed by ELISA. All data are means (±SD) of at least three separate experiments each performed in duplicate.

[3] = system: WSU-NHL, Hut-78 and Jeko-1 cells; experiment: Methylcellulose clonogenic assay; assay type: cell-based; settings: 24 h liquid culture, colonies counted after 10 days
Protocol: FIG. 2D and FIG. 2E show effects of ricolinostat alone and in combination with bendamustine on clonogenic survival. WSU-NHL, Hut-78 and Jeko-1 cells were first incubated with ricolinostat alone (1, 5, 10 μM) (C) and subsequently in combination with bendamustine (D) in liquid culture for 24 h. Treated cells were incubated in methylcellulose and colonies consisting of more 50 cell were counted after 10 days. The relative percentage with respect to control cells are shown and represent the mean±SD of three separate experiments.

lymphoma cell lines = experiment: cells; assay type: cell-based
Granta-519 = experiment: cells; assay type: cell-based; settings: Homo sapiens, MTT
Protocol: as §1

RL = experiment: MTT cell viability in RL cells; assay type: cell-based; settings: Homo sapiens, 48 h
Protocol: (§4) HDAC6 protein is expressed in all cell lines examined (FIG. 1A). Ricolinostat was administered to each cell line at various concentrations (0.01, 0.1, 1, 5, and 10 μM), and cell viability was measured at 24, 48, and 72 hours.

Karpas-299 = experiment: MTT cell viability in Karpas-299 cells; assay type: cell-based; settings: Homo sapiens, Karpas-299, 48 h
Protocol: as §4

[4] = system: reactive oxygen species (ROS); experiment: ROS generation by flow cytometry and Trx1 western blot; settings: 24 h and 48 h
Protocol: All data are expressed as the mean±SD of triplicate culture.
H2O2 was used as a positive control.
as §5

HDAC6 = target: T1, HDAC6 (Homo sapiens, UniProt Q9UBN7); experiment: Western blot of HDAC6 and acetylated α-tubulin; assay type: cell-based; settings: 24 h
T1 construct: endogenous in cells; host or cells: WSU-NHL, Hut-78, Jeko-1 lymphoma cell lines
T1 sequence (Q9UBN7 1-1215): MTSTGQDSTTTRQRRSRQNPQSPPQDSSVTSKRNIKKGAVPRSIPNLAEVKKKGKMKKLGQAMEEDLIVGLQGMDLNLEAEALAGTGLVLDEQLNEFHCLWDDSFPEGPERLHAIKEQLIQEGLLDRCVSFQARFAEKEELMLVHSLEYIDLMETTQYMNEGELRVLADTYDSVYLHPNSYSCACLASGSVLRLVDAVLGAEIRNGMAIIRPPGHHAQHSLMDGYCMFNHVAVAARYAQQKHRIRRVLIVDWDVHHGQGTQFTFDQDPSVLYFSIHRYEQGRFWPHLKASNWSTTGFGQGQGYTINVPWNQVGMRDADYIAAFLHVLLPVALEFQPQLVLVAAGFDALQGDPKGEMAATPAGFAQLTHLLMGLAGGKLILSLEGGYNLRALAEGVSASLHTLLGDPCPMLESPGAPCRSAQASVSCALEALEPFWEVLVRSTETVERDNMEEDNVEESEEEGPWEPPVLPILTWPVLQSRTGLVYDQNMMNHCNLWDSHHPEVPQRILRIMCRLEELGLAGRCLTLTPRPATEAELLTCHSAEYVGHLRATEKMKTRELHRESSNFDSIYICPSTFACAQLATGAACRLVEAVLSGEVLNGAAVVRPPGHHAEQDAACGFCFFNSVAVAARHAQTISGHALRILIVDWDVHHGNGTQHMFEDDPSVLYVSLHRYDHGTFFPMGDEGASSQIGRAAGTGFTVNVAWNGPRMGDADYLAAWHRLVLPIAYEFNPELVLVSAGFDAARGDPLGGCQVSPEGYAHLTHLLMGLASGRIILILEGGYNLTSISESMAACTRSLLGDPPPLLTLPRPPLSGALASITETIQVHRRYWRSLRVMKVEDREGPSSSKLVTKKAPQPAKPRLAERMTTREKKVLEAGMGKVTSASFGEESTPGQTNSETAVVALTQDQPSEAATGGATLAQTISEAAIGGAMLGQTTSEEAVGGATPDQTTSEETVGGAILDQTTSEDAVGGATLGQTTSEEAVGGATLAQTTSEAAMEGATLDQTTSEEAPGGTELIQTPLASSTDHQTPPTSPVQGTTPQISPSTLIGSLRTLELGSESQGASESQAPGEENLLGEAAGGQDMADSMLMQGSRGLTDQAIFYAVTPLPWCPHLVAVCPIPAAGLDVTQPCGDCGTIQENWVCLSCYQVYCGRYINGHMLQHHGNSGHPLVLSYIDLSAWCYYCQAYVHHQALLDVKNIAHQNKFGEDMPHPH
Source text: Tubulin was used to normalize protein loading.

In the case of `O=C(CCCCCCNC(=O)c1cnc(N(c2ccccc2)c2ccccc2)nc1)NO` [ricolinostat, 2-(diphenylamino)-N-(7-(hydroxyamino)-7-oxoheptyl)pyrimidine-5-carboxamide], the tubulin polymerization (tubulin polymerization) is reported as “induced tubulin polymerization”, the IC50 (WSU-NHL; 24 h, MTT, read-out: IC50) is reported as 8.65 µM and the IC50 (WSU-NHL; 48 h, MTT, read-out: IC50) is reported as 1.97 µM. For the same molecule, the IC50 (Jeko-1; Jeko-1, 48 h, MTT, read-out: IC50) was 3.42 µM, the IC50 (Hut-78; HuT78, 48 h, Hut-78, 48 h, MTT, read-out: IC50) was 1.51 µM and the IC50 (Hut-78; HuT78, 48 h, Hut-78, 48 hours, MTT, read-out: IC50) was 1.5 µM. For the same molecule, the cell cycle distribution [1] was “increase in the percentage of cells in the G0/G1 phase and a decrease in the G2/M phase”, the induction of apoptosis [2] was “induced apoptosis in all cell lines examined in time- and dose dependent manner” and the IL-10 secretion (IL-10) was “down-regulation of IL-10”. For the same molecule, the “clonogenic survival / colony formation” value [3] was “reduced clonogenic survival in a dose dependent manner”, the IC50 (lymphoma cell lines; lymphoma cell lines, exposure 24-72 hours, read-out: IC50 values ranging) was 0.17 to 8.65 µM and the IC50 (lymphoma cell lines; panel of six lymphoma cell lines, 24 and 48 h, read-out: IC50 values ranging) was 1.51 to 64 µM. For the same molecule, the IC50 (Granta-519; Granta-519, 24 h) was 64 µM, the IC50 (Granta-519; Granta-519, 48 h) was 20 µM and the IC50 (RL) was 3.37 µM. For the same molecule, the IC50 (Karpas-299) was 4.82 µM, the ROS generation [4] was “induced an increase of ROS production at 24 h, which further increased after 48 h” and the “HDAC6 expression and acetylation level of α-tubulin” value (HDAC6) was “reduced HDAC6 expression and induced the acetylation level of α-tubulin”.
`Cn1c(CCCC(=O)O)nc2cc(N(CCCl)CCCl)ccc21` [bendamustine, 4-[5-[Bis(2-chloroethyl)amino]-1-methylbenzimidazol-2-yl]butanoic acid] gave an IC50 (WSU-NHL; 24 h, read-out: IC50 at 24 hours) of 168 µM, an IC50 (Jeko-1; JeKo-1, 24 h, read-out: IC50 at 24 hours) of 127 µM and an IC50 (Hut-78; HuT78, 24 h, read-out: IC50 at 24 hours) of 144 µM. For the same molecule, the IC50 (lymphoma cell lines; 24 h, read-out: range of IC50) was 127 to 168 µM.
